Results published in ChEMBL document CHEMBL1154209, “Triple recognition of B-DNA” (Bioorg Med Chem Lett, 2009).
Calls of active or inactive are those of the source. The calls are words filed in the database; no cut-off is given here.

Columns and labels:
Assay type in all cases: nucleic-acid assay
Nucleic Acid [1] = assay: Binding affinity to duplex DNA polydA:polydT assessed as decrease in viscosity at 200 uM
Nucleic Acid [2] = assay: Binding affinity to duplex DNA polydA:polydT assessed as increase of CD signal at 360nm and at 200 uM compound concentration
Nucleic Acid [3] = assay: Binding affinity to duplex DNA dA22.dT22 assessed as change in melting temperature at 3 uM by UV analysis at 260 nm

Compound	Activity (Nucleic Acid [1])	Activity (Nucleic Acid [2])	ΔTm (Nucleic Acid [3])
CN1CCN(c2ccc3[nH]c(-c4ccc5[nH]c(-c6ccc(OCCOCCOCCN(CCOCCOCCNC(=S)NCCSCC[C@H]7O[C@@H](O[C@H]8[C@H](O)[C@@H](N)C[C@@H](N)[C@@H]8O[C@H]8O[C@H](CN)[C@@H](O)[C@H](O)[C@H]8N)[C@H](O)[C@@H]7O[C@@H]7O[C@H](CN)[C@H](O)[C@@H](O)[C@@H]7N)C(=O)CCCc7ccc8ccc9cccc%10ccc7c8c9%10)cc6)nc5c4)nc3c2)CC1	Active	Active	35 °C
CN1CCN(c2ccc3[nH]c(-c4ccc5[nH]c(-c6ccc(OCCOCCOCCOCCOCCOCCNC(=S)NCCSCC[C@H]7O[C@@H](O[C@H]8[C@H](O)[C@@H](N)C[C@@H](N)[C@@H]8O[C@H]8O[C@H](CN)[C@@H](O)[C@H](O)[C@H]8N)[C@H](O)[C@@H]7O[C@@H]7O[C@H](CN)[C@H](O)[C@@H](O)[C@@H]7N)cc6)nc5c4)nc3c2)CC1	Active	Active	24 °C
Nc1ccc2ccc3cccc4ccc1c2c34	–	–	2 °C
CN1CCN(c2ccc3[nH]c(-c4ccc5[nH]c(-c6ccc(O)cc6)nc5c4)nc3c2)CC1	–	–	22 °C
NC[C@@H]1O[C@H](O[C@H]2[C@@H](O)[C@H](O[C@@H]3[C@@H](O)[C@H](N)C[C@H](N)[C@H]3O[C@H]3O[C@H](CN)[C@@H](O)[C@H](O)[C@H]3N)O[C@@H]2CO)[C@H](N)[C@@H](O)[C@@H]1O	–	–	0 °C
CN1CCN(c2ccc3[nH]c(-c4ccc5[nH]c(-c6ccc(OCCOCCOCCN(CCOCCOCCN)C(=O)CCCc7ccc8ccc9cccc%10ccc7c8c9%10)cc6)nc5c4)nc3c2)CC1	–	–	16 °C
NC[C@H]1O[C@@H](O[C@H]2[C@@H](O)[C@H](O[C@H]3[C@H](O)[C@@H](N)C[C@@H](N)[C@@H]3O[C@H]3O[C@H](CN)[C@@H](O)[C@H](O)[C@H]3N)O[C@@H]2CCSCCNC(=S)NCCOCCOCCNC(=O)CCCc2ccc3ccc4cccc5ccc2c3c45)[C@@H](N)[C@H](O)[C@H]1O	–	–	5 °C
